Results published in patent publication US12233047B2, “Pharmaceutical combination and use thereof” (ASCENTAGE PHARMA (SUZHOU) CO., LTD., priority 2019, dated 2025).
Changes are numbered by the printed parent chain.

How the values were obtained:
FLT3 (wild type) = target: T1, FLT3 (wild type) (Homo sapiens, UniProt P36888); assay: KINOMEscan kinase binding assay, FLT3 (wild type); conditions: lower % Ctrl = stronger binding
T1 construct: host or cells: T7 phage in E. coli (BL21-derived) or HEK-293
T1 sequence (P36888 27-993): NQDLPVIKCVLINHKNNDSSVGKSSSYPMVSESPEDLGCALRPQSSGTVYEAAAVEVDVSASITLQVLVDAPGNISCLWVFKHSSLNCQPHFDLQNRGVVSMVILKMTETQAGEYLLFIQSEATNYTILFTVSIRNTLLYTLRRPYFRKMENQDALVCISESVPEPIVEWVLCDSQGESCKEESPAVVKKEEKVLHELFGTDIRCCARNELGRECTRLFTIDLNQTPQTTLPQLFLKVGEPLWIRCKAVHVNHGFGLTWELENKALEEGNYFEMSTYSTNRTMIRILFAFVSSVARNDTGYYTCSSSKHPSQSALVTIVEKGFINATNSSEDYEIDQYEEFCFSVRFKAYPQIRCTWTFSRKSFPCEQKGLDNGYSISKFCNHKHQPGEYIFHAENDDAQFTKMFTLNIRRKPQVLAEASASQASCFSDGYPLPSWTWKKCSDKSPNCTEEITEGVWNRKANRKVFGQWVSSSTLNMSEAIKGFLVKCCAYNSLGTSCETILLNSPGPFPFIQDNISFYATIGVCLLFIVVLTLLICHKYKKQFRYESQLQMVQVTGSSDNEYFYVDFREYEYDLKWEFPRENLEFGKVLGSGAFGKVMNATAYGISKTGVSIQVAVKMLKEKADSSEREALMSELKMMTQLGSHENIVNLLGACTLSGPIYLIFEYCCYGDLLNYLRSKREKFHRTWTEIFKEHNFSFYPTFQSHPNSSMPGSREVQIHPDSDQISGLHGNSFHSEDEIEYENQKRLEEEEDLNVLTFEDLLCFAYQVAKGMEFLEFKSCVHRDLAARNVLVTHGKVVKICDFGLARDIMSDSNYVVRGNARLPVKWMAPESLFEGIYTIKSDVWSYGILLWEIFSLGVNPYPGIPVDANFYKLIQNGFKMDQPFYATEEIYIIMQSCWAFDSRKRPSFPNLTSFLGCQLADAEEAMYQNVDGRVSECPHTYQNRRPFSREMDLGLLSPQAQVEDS
Protocol: (§1) The kinase assay was conducted using KINOMEscan™.
(§2) Kinase-tagged T7 phage strains were grown in parallel in 24-well blocks in an E. coli host derived from the BL21 strain. E. coli were grown to log-phase and infected with T7 phage from a frozen stock (multiplicity of infection=0.4) and incubated with shaking at 32° C. until lysis (90-150 minutes). The lysates were centrifuged (6,000×g) and filtered (0.2 μm) to remove cell debris. The remaining kinases were produced in HEK-293 cells and subsequently tagged with DNA for qPCR detection. Streptavidin-coated magnetic beads were treated with biotinylated small molecule ligands for 30 minutes at room temperature to generate affinity resins for kinase assays. The liganded beads were blocked with excess biotin and washed with blocking buffer (SeaBlock (Pierce), 1% BSA, 0.05% Tween 20, 1 mM DTT) to remove unbound ligand and to reduce non-specific phage binding. Binding reactions were assembled by combining kinases, liganded affinity beads, and test compound (Compound 23) in 1× binding buffer (20% SeaBlock, 0.17×PBS, 0.05% Tween 20, 6 mM DTT). Test compound were prepared as 40× stocks in 100% DMSO and directly diluted into the assay. All reactions were performed in polypropylene 384-well plates in a final volume of 0.04 ml. […] The kinase concentration in the eluates was measured by qPCR. […]

FLT3 (D835Y) = target: T2, FLT3 (D835Y) (Homo sapiens, UniProt P36888, D835Y); assay: KINOMEscan kinase binding assay, FLT3 (D835Y)
T2 construct: host or cells: T7 phage in E. coli (BL21-derived) or HEK-293
T2 sequence (P36888 27-993 D835Y): T1 sequence (P36888 27-993) with D809Y
Protocol: as §1, §2

In the case of `Cc1ccc(C(=O)Nc2ccc(CN3CCN(C)CC3)c(C(F)(F)F)c2)cc1C#Cc1cnc2[nH]ncc2c1` [Compound 23, 3-(2-(1H-pyrazolo[3,4-b]pyridin-5-yl)ethynyl)-4-methyl-N-(4-((4-methylpiperazin-1-yl)methyl)-3-(trifluoromethyl)phenyl)benzamide], the “% Ctrl@10 nM” value (FLT3 (wild type); 10 nM) is reported as 2.4 % Ctrl, the “% Ctrl@100 nM” value (FLT3 (wild type); 100 nM) is reported as 0.75 % Ctrl and the “% Ctrl@10 nM” value (FLT3 (D835Y); 10 nM) is reported as 42 % Ctrl. For the same molecule, the “% Ctrl@100 nM” value (FLT3 (D835Y); 100 nM) was 17 % Ctrl.
